Results as given in patent US20240294498A1, “FACTOR XIIA INHIBITORS” (Lunac Therapeutics Ltd, priority 2021, published 2024).

Columns and labels:
Type in all cases: biochemical
thrombin = target: T1, thrombin (Homo sapiens, UniProt P00734); experiment: Determination of selectivity: thrombin inhibition (chromogenic substrate GPR); settings: fold selectivity for FXIIa over thrombin (human); category
T1 construct: FXa (5 nM) and thrombin (5 nM)
Method in brief: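 Thrombin (5 nM) preincubated with increasing compound concentrations (top 500 μM, 5% DMSO) 10 min at 37 °C in 50 mM Tris, 137 mM NaCl pH 7.4, then GPR chromogenic substrate at its KM. pNA release read kinetically at 405 nm for 3 h at 37 °C. IC50 from initial rates, converted to Ki via Cheng–Prusoff.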

FXIIa = target: T2, FXIIa (Homo sapiens, UniProt P00748); experiment: Determination of Factor XIIa inhibition (chromogenic substrate S-2302); settings: human FXIIa alpha, Ki category
T2 construct: FXIIa alpha
T2 sequence (P00748 373-615 limits assumed): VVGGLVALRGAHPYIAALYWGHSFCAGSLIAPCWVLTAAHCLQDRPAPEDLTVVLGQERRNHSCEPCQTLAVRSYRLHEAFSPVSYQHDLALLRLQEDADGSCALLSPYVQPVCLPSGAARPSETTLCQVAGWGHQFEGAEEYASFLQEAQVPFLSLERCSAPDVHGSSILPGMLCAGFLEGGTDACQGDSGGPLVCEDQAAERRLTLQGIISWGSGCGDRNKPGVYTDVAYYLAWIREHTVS
T2 sequence (P00748 20-372 partner limits assumed): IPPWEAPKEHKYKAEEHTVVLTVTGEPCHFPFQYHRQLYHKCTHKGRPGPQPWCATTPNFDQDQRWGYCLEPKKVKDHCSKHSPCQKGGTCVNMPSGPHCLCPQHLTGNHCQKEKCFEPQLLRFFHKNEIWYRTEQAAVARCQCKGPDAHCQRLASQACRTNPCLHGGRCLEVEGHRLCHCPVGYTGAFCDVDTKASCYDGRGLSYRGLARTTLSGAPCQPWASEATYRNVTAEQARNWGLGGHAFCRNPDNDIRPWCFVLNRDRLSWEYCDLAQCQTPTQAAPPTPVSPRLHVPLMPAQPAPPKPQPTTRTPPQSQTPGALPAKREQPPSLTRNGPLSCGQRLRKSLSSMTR
Method in brief: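 Compound preincubated with 10 nM FXIIa for 10 min at 37° C in 50 mM Tris, 137 mM NaCl, pH 7.4, 5% DMSO, top concentration 500 μM; S-2302 added at Km. pNA release followed at 405 nm for 3 h; IC50 from initial rates, converted to Ki via Ki = IC50/(1+[S]/Km).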

FXa = FXa (Homo sapiens, UniProt P00742); experiment: Determination of selectivity: FXa inhibition (chromogenic substrate S2765); settings: fold selectivity for FXIIa over FXa (human); category
Sequence of FXa (P00742 235-488 limits assumed): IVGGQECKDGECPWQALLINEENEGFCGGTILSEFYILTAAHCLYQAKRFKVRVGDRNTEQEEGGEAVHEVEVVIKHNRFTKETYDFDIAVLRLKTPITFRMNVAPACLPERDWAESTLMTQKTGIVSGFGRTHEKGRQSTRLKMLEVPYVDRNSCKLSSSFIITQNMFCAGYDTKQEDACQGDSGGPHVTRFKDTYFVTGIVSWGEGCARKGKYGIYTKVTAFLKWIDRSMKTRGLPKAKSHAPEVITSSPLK
Sequence of FXa (P00742 41-179 partner limits assumed): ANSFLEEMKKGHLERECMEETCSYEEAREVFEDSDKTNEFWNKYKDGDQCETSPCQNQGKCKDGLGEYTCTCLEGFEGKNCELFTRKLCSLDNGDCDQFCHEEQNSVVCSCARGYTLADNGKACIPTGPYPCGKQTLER
Method in brief: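 FXa (5 nM) preincubated with increasing compound (top 500 μM) for 10 mins at 37° C in 50 mM Tris, 137 mM NaCl pH 7.4, 5% DMSO, then S2765 added at its KM. Absorbance at 405 nm followed kinetically for 3 hours; IC50 from initial rates, converted to Ki by Cheng-Prusoff.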

Row | Ki (FXIIa) | FXa (human)/FXIIa alpha (human) (FXa) | Structure (SMILES) | Thrombin (human)/FXIIa alpha (human) (thrombin)
1 | 200 to 800 nM | ∘∘∘ | Cc1ccc(C[C@@H]2C[C@@H](C(=O)NCc3ccc4c(cnn4C)c3)N(C(=O)[C@@H]3NCCC[C@@H]3C(=O)N3CCCC3)C2)s1 [Example M06030, (2S,4S)-N-((1-methyl-1H-indazol-5-yl)methyl)-4-((5-methylthiophen-2-yl)methyl)-1-((2R,3S)-3-(pyrrolidine-1-carbonyl)piperidine-2-carbonyl)pyrrolidine-2-carboxamide] | ++ (a fold selectivity value of 10 to 100)
2 | < 200 nM | ∘∘∘ | Cc1ccc(C[C@@H]2C[C@@H](C(=O)NCc3ccc4c(cnn4C)c3)N(C(=O)[C@@H]3NCCC[C@@H]3C(=O)N(C)C3CCN(C)C3)C2)cc1 (stereo partly drawn) [Example M06033, (2R,3S)-N-methyl-2-((2S,4R)-2-(((1-methyl-1H-indazol-5-yl)methyl)carbmoyl)-4-(4-methylbenzyl)pyrrolidine-1-carbonyl)-N-(1-methylpyrrolidin-3-yl)piperidine-3-carboxamide] | +++ (fold selectivity values greater than 100)
3 | < 200 nM | ∘∘∘ | Cc1ccc(C[C@@H]2C[C@@H](C(=O)NCc3ccc4c(cnn4C)c3)N(C(=O)[C@@H]3NCCC[C@@H]3C(=O)N(C)C3CCN(C)C3)C2)cc1 (stereo partly drawn) [Example M06034, (2R,3S)-N-methyl-2-((2S,4R)-2-(((1-methyl-1H-indazol-5-yl)methyl)carbamoyl)-4-(4-methylbenzyl)pyrrolidine-1-carbonyl)-N-(1-methylpyrrolidin-3-yl)piperidine-3-carboxamide] | +++ (fold selectivity values greater than 100)
4 | < 200 nM | ∘∘∘ | Cc1ccc(C[C@@H]2C[C@@H](C(=O)NCc3ccc4c(cnn4C)c3)N(C(=O)[C@@H]3NCCC[C@@H]3C(=O)N(C)CCN3CCCC3)C2)cc1 [Example M06039, (2R,3S)-N-methyl-2-((2S,4R)-2-(((1-methyl-1H-indazol-5-yl)methyl)carbamoyl)-4-(4-methylbenzyl)pyrrolidine-1-carbonyl)-N-(2-(pyrrolidin-1-yl)ethyl)piperidine-3-carboxamide] | +++ (fold selectivity values greater than 100)
5 | < 200 nM | ∘∘∘ | Cn1ncc2cc(CNC(=O)[C@@H]3C[C@@H](Cc4cc(C5CC5)on4)CN3C(=O)[C@@H]3NCCC[C@@H]3C(=O)N3CCC[C@@H]3C(F)(F)F)ccc21 [Example M06047, (2S,4S)-4-+(5-cyclopropylisoxazol-3-yl)methyl+-N-+(1-methylindazol-5-yl)methyl+-1-+(2R,3S)-3-+(2R)-2-(trifluoromethyl)pyrrolidine-1-carbonyl+piperidine-2-carbonyl+pyrrolidine-2-carboxamide] | +++ (fold selectivity values greater than 100)
6 | < 200 nM | ∘∘∘ | Cc1ccc(C[C@@H]2C[C@@H](C(=O)NCc3ccc4c(cnn4C)c3)N(C(=O)[C@@H]3NCCC[C@@H]3C(=O)N(CCN(C)C)C3CC3)C2)cc1 [Example M06048, (2R,3S)-N-cyclopropyl-N-(2-(dimethylamino)ethyl)-2-((2S,4R)-2-(((1-methyl-1H-indazol-5-yl)methyl)carbamoyl)-4-(4-methylbenzyl)pyrrolidine-1-carbonyl)piperidine-3-carboxamide] | +++ (fold selectivity values greater than 100)
7 | < 200 nM | ∘∘∘ | Cc1ccc(C[C@@H]2C[C@@H](C(=O)NCc3ccc4c(cnn4C)c3)N(C(=O)[C@@H]3NCCC[C@@H]3C(=O)N(C)CCN(C)C3CC3)C2)cc1 [Example M06049, (2R,3S)-N-[2-[cyclopropyl(methyl)amino]ethyl]N-methyl-2-[(2S,4R)-2-[(1-methylindazol-5-yl)methylcarbamoyl]-4-(p-tolylmethyl)pyrrolidine-1-carbonyl]piperidine-3-carboxamide] | +++ (fold selectivity values greater than 100)
8 | < 200 nM | ∘∘∘ | CN(C)CCN(C)C(=O)[C@H]1CCCN[C@H]1C(=O)N1C[C@H](Cc2ccc(C3CC3)cc2)C[C@H]1C(=O)NCc1ccc2c(cnn2C)c1 [Example M06060, (2R,3S)-2-((2S,4R)-4-(4-cyclopropylbenzyl)-2-(((1-methyl-1H-indazol-5-yl)methyl)carbamoyl)pyrrolidine-1-carbonyl)-N-(2-(dimethylamino)ethyl)-N-methylpiperidine-3-carboxamide] | +++ (fold selectivity values greater than 100)
9 | < 200 nM | ∘∘∘ | Cc1ccc(C[C@@H]2C[C@@H](C(=O)NCc3ccc4c(cnn4C)c3)N(C(=O)[C@@H]3NCCC[C@@H]3C(=O)N(C)C3CCN(C)CC3)C2)cc1 [Example M06061, (2R,3S)-N-methyl-2-((2S,4R)-2-(((1-methyl-1H-indazol-5-yl)methyl)carbamoyl)-4-(4-methylbenzyl)pyrrolidine-1-carbonyl)-N-(1-methylpiperidin-4-yl)piperidine-3-carboxamide] | +++ (fold selectivity values greater than 100)
10 | < 200 nM | ∘∘∘ | Cc1ccc(C[C@@H]2C[C@@H](C(=O)NCc3ccc4c(cnn4C)c3)N(C(=O)[C@@H]3NCCC[C@@H]3C(=O)N(C)CCCN(C)C)C2)cc1 [Example M06063, (2R,3S)-N-(3-(dimethylamino)propyl)-N-methyl-2-((2S,4R)-2-(((1-methyl-1H-indazol-5-yl)methyl)carbamoyl)-4-(4-methylbenzyl)pyrrolidine-1-carbonyl)piperidine-3-carboxamide] | +++ (fold selectivity values greater than 100)
11 | 200 to 800 nM | ∘∘∘ | Cc1ccc(C[C@@H]2C[C@@H](C(=O)NCc3ccc4c(c3)nnn4C)N(C(=O)[C@@H]3NCCC[C@@H]3C(=O)N3CCC[C@@H]3C(F)(F)F)C2)s1 [Example M06079, (2S,4S)-N-+(1-methylbenzotriazol-5-yl)methyl+-4-+(5-methyl-2-thienyl)methyl+-1-+(2R,3S)-3-+(2R)-2-(trifluoromethyl)pyrrolidine-1-carbonyl+piperidine-2-carbonyl+pyrrolidine-2-carboxamide] | +++ (fold selectivity values greater than 100)
12 | < 200 nM | ∘∘∘ | Cc1ccc(C[C@@H]2C[C@@H](C(=O)NCc3ccc4c(cnn4C)c3)N(C(=O)[C@@H]3NCCC[C@@H]3C(=O)N(C)C3CCN(CCF)CC3)C2)cc1 [Example M06083, (2R,3S)—N-[1-(2-fluoroethyl)-4-piperidyl]-N-methyl-2-[(2S,4R)-2-[(1-methylindazol-5-yl)methylcarbamoyl]-4-(p-tolylmethyl)pyrrolidine-1-carbonyl]piperidine-3-carboxamide] | +++ (fold selectivity values greater than 100)
13 | < 200 nM | ∘∘∘ | COCCN1CCC(N(C)C(=O)[C@H]2CCCN[C@H]2C(=O)N2C[C@H](Cc3ccc(C)cc3)C[C@H]2C(=O)NCc2ccc3c(cnn3C)c2)CC1 [Example M06084, (2R,3S)-N-(1-(2-methoxyethyl)piperidin-4-yl)-N-methyl-2-((2S,4R)-2-(((1-methyl-1H-indazol-5-yl)methyl)carbamoyl)-4-(4-methylbenzyl)pyrrolidine-1-carbonyl)piperidine-3-carboxamide] | +++ (fold selectivity values greater than 100)
14 | < 200 nM | ∘∘∘ | CN(CCN1CCCC1)C(=O)[C@H]1CCCN[C@H]1C(=O)N1C[C@@H](C(F)(F)F)C[C@H]1C(=O)NCc1ccc2c(cnn2C)c1 [Example M06085, (2R,3S)-N-methyl-2-((2S,4S)-2-(((1-methyl-1H-indazol-5-yl)methyl)carbamoyl)-4-(trifluoromethyl)pyrrolidine-1-carbonyl)-N-(2-(pyrrolidin-1-yl)ethyl)piperidine-3-carboxamide] | +++ (fold selectivity values greater than 100)
15 | 200 to 800 nM | ∘∘∘ | Cc1ccc(C[C@@H]2C[C@@H](C(=O)NCCCn3ccnc3)N(C(=O)[C@@H]3NCCC[C@@H]3C(=O)N3CCC[C@@H]3C(F)(F)F)C2)cc1 [Example M06089] | +++ (fold selectivity values greater than 100)
